Test results from paper PMC7714403 (JCI Insight, 2020).
Like-named read-outs stand apart in the source and are kept apart here.

Key:
Assay in all cases: KiNativ, MOLM13 live cells
Type in all cases: cell-based
CDK7 = CDK7 (Homo sapiens, UniProt P50613); conditions: MOLM-13; 100 nM, 2 hours; Lys2; read-out: Inhibition vs DMSO
Experimental: (§1) Samples were analyzed by KiNativ in situ kinase profiling by ActivX Biosciences.

CDK9 = CDK9 (Homo sapiens, UniProt P50750); conditions: MOLM-13; 100 nM, 2 hours; ATP Loop; read-out: Inhibition vs DMSO
Experimental: as §1

DGKA = DGKA (Homo sapiens, UniProt P23743); conditions: MOLM-13; 100 nM, 2 hours; ATP; read-out: Inhibition vs DMSO
Sequence of DGKA (P23743 whole entry): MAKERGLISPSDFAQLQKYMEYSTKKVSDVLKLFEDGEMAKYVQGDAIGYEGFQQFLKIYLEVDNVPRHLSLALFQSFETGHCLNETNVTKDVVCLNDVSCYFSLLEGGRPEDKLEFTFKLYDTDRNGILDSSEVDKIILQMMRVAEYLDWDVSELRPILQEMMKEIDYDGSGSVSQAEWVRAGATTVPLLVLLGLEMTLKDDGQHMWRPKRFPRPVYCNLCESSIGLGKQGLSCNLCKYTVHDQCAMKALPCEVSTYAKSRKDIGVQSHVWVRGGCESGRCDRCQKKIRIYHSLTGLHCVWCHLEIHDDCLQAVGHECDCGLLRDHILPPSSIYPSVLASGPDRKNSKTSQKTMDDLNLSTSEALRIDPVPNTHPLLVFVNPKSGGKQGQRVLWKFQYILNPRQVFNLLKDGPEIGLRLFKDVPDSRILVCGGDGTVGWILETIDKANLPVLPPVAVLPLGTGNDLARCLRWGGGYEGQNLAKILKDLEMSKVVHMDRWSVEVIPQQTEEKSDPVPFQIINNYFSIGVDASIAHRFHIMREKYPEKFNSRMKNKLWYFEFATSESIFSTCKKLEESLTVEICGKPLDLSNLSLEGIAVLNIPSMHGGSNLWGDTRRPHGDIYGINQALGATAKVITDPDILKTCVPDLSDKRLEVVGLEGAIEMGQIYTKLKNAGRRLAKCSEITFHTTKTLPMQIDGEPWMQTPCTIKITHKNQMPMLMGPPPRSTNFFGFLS
Experimental: as §1

DNAPK = DNAPK (Homo sapiens, UniProt P78527); conditions: MOLM-13, 2 h, 100 nM, ATP, read-out: Inhibition vs DMSO
Sequence of DNAPK (P78527 2-4128 limits assumed): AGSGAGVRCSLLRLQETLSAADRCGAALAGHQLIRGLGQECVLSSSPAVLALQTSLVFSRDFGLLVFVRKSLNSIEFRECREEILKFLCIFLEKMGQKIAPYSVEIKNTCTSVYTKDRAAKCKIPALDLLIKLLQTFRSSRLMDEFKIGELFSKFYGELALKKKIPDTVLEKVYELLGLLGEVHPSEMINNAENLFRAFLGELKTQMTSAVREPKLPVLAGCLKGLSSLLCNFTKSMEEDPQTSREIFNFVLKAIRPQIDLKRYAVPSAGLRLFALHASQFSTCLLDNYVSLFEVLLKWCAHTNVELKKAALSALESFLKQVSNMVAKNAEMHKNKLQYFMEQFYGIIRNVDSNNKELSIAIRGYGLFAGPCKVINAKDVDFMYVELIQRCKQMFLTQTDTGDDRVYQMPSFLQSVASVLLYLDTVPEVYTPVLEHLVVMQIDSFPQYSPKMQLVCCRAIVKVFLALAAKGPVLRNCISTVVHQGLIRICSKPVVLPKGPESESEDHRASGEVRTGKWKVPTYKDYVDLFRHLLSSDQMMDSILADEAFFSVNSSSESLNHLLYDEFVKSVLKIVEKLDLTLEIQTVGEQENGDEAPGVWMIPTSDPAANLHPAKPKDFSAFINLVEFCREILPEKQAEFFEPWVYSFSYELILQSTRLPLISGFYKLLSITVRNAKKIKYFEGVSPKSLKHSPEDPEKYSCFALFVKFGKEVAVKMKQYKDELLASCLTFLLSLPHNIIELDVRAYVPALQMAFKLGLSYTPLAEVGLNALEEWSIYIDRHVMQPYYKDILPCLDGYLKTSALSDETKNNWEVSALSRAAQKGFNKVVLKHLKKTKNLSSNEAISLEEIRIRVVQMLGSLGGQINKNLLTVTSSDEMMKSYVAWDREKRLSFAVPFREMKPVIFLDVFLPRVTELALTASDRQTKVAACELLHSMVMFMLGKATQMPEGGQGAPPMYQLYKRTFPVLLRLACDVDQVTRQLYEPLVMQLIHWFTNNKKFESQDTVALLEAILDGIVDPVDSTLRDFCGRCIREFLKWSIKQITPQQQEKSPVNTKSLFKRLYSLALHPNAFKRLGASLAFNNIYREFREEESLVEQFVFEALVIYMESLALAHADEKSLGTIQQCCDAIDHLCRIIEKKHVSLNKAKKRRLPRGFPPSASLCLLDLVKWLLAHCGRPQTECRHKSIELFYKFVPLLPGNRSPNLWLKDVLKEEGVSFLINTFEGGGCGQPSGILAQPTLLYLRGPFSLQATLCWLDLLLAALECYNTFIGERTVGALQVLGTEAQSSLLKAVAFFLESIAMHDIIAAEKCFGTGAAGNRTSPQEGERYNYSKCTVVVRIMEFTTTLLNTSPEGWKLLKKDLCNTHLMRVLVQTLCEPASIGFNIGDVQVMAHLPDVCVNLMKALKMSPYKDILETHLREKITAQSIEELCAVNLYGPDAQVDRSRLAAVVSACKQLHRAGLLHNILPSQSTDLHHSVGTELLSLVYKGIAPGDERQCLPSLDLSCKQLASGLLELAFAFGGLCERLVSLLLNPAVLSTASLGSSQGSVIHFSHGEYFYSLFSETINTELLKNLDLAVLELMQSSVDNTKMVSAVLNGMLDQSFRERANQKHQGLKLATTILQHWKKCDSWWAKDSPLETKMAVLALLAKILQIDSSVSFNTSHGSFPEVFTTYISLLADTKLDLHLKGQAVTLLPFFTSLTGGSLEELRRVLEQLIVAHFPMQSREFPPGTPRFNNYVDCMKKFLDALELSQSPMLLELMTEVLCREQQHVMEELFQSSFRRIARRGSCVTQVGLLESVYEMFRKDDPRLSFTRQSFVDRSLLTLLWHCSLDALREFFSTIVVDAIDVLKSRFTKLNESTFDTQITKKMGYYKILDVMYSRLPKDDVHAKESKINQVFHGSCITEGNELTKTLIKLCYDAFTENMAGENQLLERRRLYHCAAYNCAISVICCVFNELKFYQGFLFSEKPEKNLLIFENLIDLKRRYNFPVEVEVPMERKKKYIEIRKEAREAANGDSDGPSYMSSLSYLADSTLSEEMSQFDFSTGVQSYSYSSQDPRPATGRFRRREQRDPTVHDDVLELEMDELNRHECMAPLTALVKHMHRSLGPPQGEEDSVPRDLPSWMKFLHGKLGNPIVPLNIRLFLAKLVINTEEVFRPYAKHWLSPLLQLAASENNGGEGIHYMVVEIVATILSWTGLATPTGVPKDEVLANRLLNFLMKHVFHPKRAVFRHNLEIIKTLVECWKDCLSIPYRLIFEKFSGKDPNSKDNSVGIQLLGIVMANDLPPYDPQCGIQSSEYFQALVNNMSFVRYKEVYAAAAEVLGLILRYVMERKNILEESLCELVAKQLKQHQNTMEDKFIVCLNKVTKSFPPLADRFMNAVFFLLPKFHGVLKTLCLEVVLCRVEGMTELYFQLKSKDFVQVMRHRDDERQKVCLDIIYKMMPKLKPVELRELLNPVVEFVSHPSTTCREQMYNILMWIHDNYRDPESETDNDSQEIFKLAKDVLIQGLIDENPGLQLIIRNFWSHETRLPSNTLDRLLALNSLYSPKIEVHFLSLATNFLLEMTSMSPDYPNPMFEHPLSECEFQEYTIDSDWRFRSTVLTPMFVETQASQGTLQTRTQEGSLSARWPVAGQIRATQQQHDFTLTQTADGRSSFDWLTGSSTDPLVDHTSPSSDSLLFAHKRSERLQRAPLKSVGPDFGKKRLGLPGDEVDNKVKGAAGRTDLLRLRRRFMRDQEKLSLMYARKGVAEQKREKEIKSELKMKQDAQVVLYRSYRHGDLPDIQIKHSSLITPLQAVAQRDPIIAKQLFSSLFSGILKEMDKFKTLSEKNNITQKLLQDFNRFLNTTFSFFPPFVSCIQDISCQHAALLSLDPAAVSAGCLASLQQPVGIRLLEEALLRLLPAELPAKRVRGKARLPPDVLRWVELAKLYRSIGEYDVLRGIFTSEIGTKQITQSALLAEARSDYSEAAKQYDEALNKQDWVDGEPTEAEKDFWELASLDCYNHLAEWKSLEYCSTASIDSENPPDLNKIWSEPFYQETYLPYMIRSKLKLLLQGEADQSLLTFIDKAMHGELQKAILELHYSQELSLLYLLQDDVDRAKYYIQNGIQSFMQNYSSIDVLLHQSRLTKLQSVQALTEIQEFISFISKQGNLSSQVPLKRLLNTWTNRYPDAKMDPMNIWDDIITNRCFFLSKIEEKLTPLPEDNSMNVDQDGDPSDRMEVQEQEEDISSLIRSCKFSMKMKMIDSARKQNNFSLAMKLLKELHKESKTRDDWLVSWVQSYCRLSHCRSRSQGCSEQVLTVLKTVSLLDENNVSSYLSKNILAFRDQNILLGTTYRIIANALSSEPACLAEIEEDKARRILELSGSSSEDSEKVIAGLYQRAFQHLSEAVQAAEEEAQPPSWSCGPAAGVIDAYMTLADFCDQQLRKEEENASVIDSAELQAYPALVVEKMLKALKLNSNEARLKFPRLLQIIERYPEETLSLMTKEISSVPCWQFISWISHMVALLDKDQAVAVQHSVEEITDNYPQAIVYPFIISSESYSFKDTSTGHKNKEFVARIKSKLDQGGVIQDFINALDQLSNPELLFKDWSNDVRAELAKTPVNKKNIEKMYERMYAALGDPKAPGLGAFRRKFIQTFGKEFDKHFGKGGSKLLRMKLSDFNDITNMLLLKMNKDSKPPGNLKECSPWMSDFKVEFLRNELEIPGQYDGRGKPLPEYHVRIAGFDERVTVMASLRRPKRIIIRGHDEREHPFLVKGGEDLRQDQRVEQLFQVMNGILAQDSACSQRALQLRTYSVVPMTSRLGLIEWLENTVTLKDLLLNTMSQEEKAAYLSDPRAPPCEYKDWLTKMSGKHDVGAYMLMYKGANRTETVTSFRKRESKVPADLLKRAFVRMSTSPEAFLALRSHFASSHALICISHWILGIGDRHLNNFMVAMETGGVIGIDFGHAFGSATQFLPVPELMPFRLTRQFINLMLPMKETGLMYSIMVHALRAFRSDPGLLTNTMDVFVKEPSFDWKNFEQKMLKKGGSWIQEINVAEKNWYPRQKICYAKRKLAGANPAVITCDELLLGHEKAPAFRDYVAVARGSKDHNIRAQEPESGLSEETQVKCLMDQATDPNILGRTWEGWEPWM
Experimental: as §1

GSK3B = GSK3B (Homo sapiens, UniProt P49841); conditions: MOLM-13; 100 nM, 2 hours; Lys2; read-out: Inhibition vs DMSO
Experimental: as §1

IKKa = IKKa (Homo sapiens, UniProt O15111); conditions: MOLM-13; 100 nM, 2 hours; Lys2; read-out: Inhibition vs DMSO
Experimental: as §1

ILK = molecular target: T1, ILK (Homo sapiens, UniProt Q13418); conditions: MOLM-13, 2 h, 100 nM
T1 sequence (Q13418 1-452): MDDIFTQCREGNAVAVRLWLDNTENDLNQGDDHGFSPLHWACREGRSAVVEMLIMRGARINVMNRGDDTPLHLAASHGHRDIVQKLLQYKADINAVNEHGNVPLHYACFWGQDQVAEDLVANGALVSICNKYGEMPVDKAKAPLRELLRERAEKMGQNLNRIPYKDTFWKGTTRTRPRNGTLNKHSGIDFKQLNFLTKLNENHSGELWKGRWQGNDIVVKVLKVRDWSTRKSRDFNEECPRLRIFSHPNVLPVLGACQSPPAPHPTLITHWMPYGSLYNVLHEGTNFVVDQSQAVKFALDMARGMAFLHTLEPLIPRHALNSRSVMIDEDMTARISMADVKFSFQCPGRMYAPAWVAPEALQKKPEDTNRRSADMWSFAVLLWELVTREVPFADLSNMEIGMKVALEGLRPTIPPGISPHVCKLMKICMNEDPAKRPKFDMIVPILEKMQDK
Experimental: as §1

MAP3K5 = MAP3K5 (Homo sapiens, UniProt Q99683); conditions: MOLM-13; 100 nM, 2 hours; Lys2; read-out: Inhibition vs DMSO
Experimental: as §1

PAN3 = molecular target: T2, PAN3 (Homo sapiens, UniProt Q58A45); conditions: MOLM-13, 2 h, 100 nM, ATP, read-out: Inhibition vs DMSO
T2 sequence (Q58A45 1-887): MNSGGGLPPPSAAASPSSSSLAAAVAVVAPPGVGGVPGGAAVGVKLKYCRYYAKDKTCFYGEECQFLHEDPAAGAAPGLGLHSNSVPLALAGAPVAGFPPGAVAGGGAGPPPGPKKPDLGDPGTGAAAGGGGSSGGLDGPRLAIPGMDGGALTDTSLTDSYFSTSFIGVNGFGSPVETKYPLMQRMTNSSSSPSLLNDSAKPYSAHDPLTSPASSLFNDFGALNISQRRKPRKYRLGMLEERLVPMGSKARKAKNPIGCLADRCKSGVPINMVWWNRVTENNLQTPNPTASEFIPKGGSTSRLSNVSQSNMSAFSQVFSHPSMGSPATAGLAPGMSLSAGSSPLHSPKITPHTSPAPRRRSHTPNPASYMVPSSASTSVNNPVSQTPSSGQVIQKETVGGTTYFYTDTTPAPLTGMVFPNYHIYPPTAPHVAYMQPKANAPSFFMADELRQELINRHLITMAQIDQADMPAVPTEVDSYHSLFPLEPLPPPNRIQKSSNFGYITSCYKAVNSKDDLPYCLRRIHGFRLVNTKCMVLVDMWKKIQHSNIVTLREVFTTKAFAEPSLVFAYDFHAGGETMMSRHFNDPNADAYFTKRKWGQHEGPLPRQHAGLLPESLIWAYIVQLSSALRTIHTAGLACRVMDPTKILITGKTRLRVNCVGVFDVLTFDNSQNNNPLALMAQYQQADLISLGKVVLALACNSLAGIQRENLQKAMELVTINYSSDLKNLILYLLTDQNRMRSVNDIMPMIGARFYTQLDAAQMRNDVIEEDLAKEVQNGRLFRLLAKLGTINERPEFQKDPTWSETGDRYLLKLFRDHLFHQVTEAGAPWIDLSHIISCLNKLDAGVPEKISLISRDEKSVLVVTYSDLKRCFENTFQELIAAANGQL
Experimental: as §1

PIP5K3 = PIP5K3 (Homo sapiens, UniProt Q9Y2I7); conditions: 100 nM, 2 hours; ATP
Experimental: as §1

eEF2K = eEF2K (Homo sapiens, UniProt O00418); conditions: MOLM-13; 100 nM, 2 hours; ATP; read-out: Inhibition vs DMSO
Experimental: as §1

## CN1CCN(Cc2ccc(Nc3ncc(Cl)c(Nc4ccccc4S(=O)(=O)N(C)C)n3)cc2)CC1 [TP-0903]
CDK7
  inhibition at 0.1 µM: 86.1%
CDK9
  inhibition at 0.1 µM: -34.4%
DGKA
  inhibition at 0.1 µM: -9.4%
DNAPK; EHPFLVKGGEDLR
  inhibition at 0.1 µM: 11.7%
DNAPK; KGGSWIQEINVAEK
  inhibition at 0.1 µM: 8.3%
GSK3B
  inhibition at 0.1 µM: -11.3%
IKKa
  inhibition at 0.1 µM: 2.9%
ILK; Lys1, read-out: Inhibition vs DMSO
  inhibition at 0.1 µM: 6.4%
ILK; Protein Kinase Domain, read-out: Inhibition vs DMSO
  inhibition at 0.1 µM: -1.3%
MAP3K5
  inhibition at 0.1 µM: 0.5%
PAN3; IQKSSNFGYITSCYK
  inhibition at 0.1 µM: 11.2%
PAN3; VMDPTKILITGK
  inhibition at 0.1 µM: -0.5%
PIP5K3
  Inhibition vs DMSO: 50.9%
eEF2K
  inhibition at 0.1 µM: -29.5%
